# Source: US12552783B2, “Modulators of proteolysis and associated methods of use” (Arvinas Operations, Inc., priority 2018, dated 2026)
# Target: KRas (Homo sapiens, UniProt P01116, G12C)
# Assay: KRas degradation in SW1573 cells by Western blot, normalized to GAPDH (data of Table 14)
# Type: cell-based
# Conditions: SW1573 cells
# Summary of the method: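 SW1573 cells, homozygous for the KRas G12C mutation and maintained in DMEM with 10% FBS and 1% penicillin-streptomycin, were seeded in 12-well plates, allowed to attach overnight at 37° C. under 5% CO2, then serum-starved for 24 hours before compound exposure. KRas levels were measured by Western blot, normalized to GAPDH, and compared with DMSO controls to give percent degradation, DC50 and Dmax.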
Compound,Percent Degradation at Indicated Concentration (μM) (0.1 μM),Percent Degradation at Indicated Concentration (μM) (0.3 μM),Percent Degradation at Indicated Concentration (μM) (1 μM)
"C=CC(=O)N1CCN(c2nc(O[C@H](C)CN3CCC(CN4CCN(c5ccc6c(c5)C(=O)N(C5CCC(=O)NC5=O)C6=O)CC4)CC3)nc3c(F)c(-c4cc(O)cc5ccccc45)c(Cl)cc23)CC1 (stereo partly drawn) [compound 431, 5-(4-((1-((2R)-2-((4-(4-acryloylpiperazin-1-yl)-6-chloro-8-fluoro-7-(3-hydroxynaphthalen-1-yl)quinazolin-2-yl)oxy)propyl)piperidin-4-yl)methyl)piperazin-1-yl)-2-(2,6-dioxopiperidin-3-yl)isoindoline-1,3-dione]",C (Percent Degradation: C ≤ 35),C (Percent Degradation: C ≤ 35),C (Percent Degradation: C ≤ 35)
"C=CC(=O)N1CCN(c2nc(O[C@H](C)CN3CCC(OCCOc4cc(-c5scnc5C)ccc4CNC(=O)[C@@H]4C[C@@H](O)CN4C(=O)[C@@H](c4cc(C)no4)C(C)C)CC3)nc3c2CCN(c2cc(O)cc4ccccc24)C3)CC1 [compound 436, (2S,4R)-N-(2-(2-((1-((R)-2-((4-(4-acryloylpiperazin-1-yl)-7-(3-hydroxynaphthalen-1-yl)-5,6,7,8-tetrahydropyrido[3,4-d]pyrimidin-2-yl)oxy)propyl)piperidin-4-yl)oxy)ethoxy)-4-(4-methylthiazol-5-yl)benzyl)-4-hydroxy-1-((R)-3-methyl-2-(3-methylisoxazol-5-yl)butanoyl)pyrrolidine-2-carboxamide]",C (Percent Degradation: C ≤ 35),B (35 < B < 70),B (35 < B < 70)
"C=CC(=O)N1CCN(c2nc(O[C@H](C)CN3CCC(OCCOc4cc(-c5scnc5C)ccc4CNC(=O)[C@@H]4C[C@@H](O)CN4C(=O)[C@H](c4cc(C)no4)C(C)C)CC3)nc3c2CCN(c2cc(O)cc4ccccc24)C3)CC1 [compound 437, (2S,4R)-N-(2-(2-((14(R)-2-((4-(4-acryloylpiperazin-1-yl)-7-(3-hydroxynaphthalen-1-yl)-5,6,7,8-tetrahydropyrido[3,4-d1pyrimidin-2-yl)oxy)propyl)piperidin-4-yl)oxy)ethoxy)-4-(4-methylthiazo1-5-yl)benzyl)-4-hydroxy-1-((S)-3-methyl-2-(3-methylisoxazol-5-yl)butanoyl)pyrrolidine-2-carboxamide]",C (Percent Degradation: C ≤ 35),C (Percent Degradation: C ≤ 35),C (Percent Degradation: C ≤ 35)

# The remaining lines, values ahead:
Percent Degradation at Indicated Concentration (μM) (0.1 μM),Percent Degradation at Indicated Concentration (μM) (0.3 μM),Percent Degradation at Indicated Concentration (μM) (1 μM),Compound
B (35 < B < 70),C (Percent Degradation: C ≤ 35),B (35 < B < 70),C=CC(=O)N1CCN(c2nc(O[C@H](C)CN3CCC(OCCOCCOc4cc(-c5scnc5C)ccc4CNC(=O)[C@@H]4C[C@@H](O)CN4C(=O)[C@@H](c4cc(C)no4)C(C)C)CC3)nc3c2CCN(c2cc(O)cc4ccccc24)C3)CC1 [compound 438]
C (Percent Degradation: C ≤ 35),C (Percent Degradation: C ≤ 35),C (Percent Degradation: C ≤ 35),"C=CC(=O)N1CCN(c2nc(O[C@H](C)CN3CCC(OCCOCCOc4cc(-c5scnc5C)ccc4CNC(=O)[C@@H]4C[C@@H](O)CN4C(=O)[C@H](c4cc(C)no4)C(C)C)CC3)nc3c2CCN(c2cc(O)cc4ccccc24)C3)CC1 [compound 439, (2S,4R)-N-(2-(2-(2-((1-((R)-2-((4-(4-acryloylpiperazin-1-yl)-7-(3-hydroxynaphthalen-1-yl)-5,6,7,8-tetrahydropyrido[3,4-d]pyrimidin-2-yl)oxy)propyl)piperidin-4-yl)oxy)ethoxy)ethoxy)-4-(4-methylthiazol-5-yl)benzyl)-4-hydroxy-1-((S)-3-methyl-2-(3-methylisoxazol-5-yl)butanoyl)pyrrolidine-2-carboxamide]"
